Experiment [1] has as its target T1, c-Kit(V654A) (Homo sapiens, UniProt P10721, V654A).
T1 construct: amino acids 544-end containing the V654A mutation; GST (N)
Kind of experiment: c-Kit(V654A) assay. The class given is biochemical. Particulars: recombinant human c-Kit aa 544-end, 200 μM ATP, 1.4E-06 means 1.4×10^−6, read-out: Inhibition (IC50) of c-KIT (V654A). An outline of the steps:
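Radiometric filter-binding read-out: substrate 33P incorporation counted by scintillation after P30 filtermat washes in 75 mM phosphoric acid and methanol. Enzyme: N-GST recombinant human c-Kit aa 544-end carrying V654A.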

Experiment [2] has as its target T2, PDGFRalpha(V561D) (Homo sapiens, UniProt P16234, V561D).
T2 construct: recombinant human PDGFRalpha, amino acids 550end containing the V561 D mutation; 6His (N)
The experiment in a line: PDGFRalpha(V561D) assay. The format is biochemical. Particulars: recombinant human PDGFRalpha aa 550-end, 200 μM ATP, 1.4E-06 means 1.4×10^−6, read-out: Inhibition (IC50) of PDGFRα (V561D). In outline:
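Radiometric filter-binding assay: substrate phosphorylation by recombinant N-His-tagged human PDGFRα 550-end V561D was quenched with 3% phosphoric acid after 40 min at room temperature, then counted.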

In general, IC50 refers to the concentration that gives 50% inhibition.

T1 sequence (P10721 544-976 V654A): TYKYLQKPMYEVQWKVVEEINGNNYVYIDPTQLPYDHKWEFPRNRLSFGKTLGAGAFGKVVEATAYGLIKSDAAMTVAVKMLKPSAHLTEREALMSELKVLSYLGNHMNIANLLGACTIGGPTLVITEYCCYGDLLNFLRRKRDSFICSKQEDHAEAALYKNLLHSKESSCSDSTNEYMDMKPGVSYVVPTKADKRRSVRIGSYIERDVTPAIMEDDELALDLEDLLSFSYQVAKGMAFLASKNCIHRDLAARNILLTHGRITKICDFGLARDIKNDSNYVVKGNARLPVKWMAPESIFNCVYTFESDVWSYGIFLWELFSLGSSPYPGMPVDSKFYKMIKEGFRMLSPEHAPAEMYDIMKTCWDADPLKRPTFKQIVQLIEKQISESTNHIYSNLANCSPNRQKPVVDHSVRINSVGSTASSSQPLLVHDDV
T2 sequence (P16234 550-1089 V561D): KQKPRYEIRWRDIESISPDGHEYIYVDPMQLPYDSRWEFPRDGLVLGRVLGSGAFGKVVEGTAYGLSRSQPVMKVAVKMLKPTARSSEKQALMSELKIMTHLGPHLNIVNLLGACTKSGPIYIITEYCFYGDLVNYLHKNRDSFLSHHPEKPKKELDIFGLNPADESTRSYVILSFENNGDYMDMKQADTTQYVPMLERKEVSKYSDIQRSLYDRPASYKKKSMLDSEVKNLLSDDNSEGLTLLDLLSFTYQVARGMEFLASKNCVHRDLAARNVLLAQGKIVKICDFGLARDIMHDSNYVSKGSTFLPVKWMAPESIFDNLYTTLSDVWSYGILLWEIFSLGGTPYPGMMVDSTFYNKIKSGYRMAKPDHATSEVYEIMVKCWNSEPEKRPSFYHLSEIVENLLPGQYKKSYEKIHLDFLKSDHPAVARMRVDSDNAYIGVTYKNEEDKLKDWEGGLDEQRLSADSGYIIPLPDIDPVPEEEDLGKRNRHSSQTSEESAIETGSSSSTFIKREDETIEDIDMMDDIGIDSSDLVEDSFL

Regarding `O=c1[nH]c2ccc(F)cc2cc1-c1cn(-c2ccc(S(=O)(=O)N3CCNCC3)cc2)nn1` [A129, 6-fluoro-3-{1-[4-(piperazine-1-sulfonyl)-phenyl]-1H-[1,2,3]triazol-4-yl}-1H-quinolin-2-one], the results for the IC50 in experiment [1] and in experiment [2] were 13 nM and 48 nM, respectively.
On the same counts, the results for `O=c1[nH]c2cc(F)c(F)cc2cc1-c1cn(-c2ccc(OCCN3CCNCC3)cc2)nn1` [A130, 6,7-difluoro-3-{1-[4-(2-piperazin-1-yl-ethoxy)-phenyl]-1H-[1,2,3]triazol-4-yl}-1H-quinolin-2-one] are 35 nM and 170 nM.
On the same counts, the results for `O=c1[nH]c2ccc(F)cc2cc1-c1cn(-c2ccc(OCCCN3CCNCC3)cc2)nn1` [A131, 6-fluoro-3-{1-[4-(3-piperazin-1-yl-propoxy)-phenyl]-1H-[1,2,3]triazol-4-yl}-1H-quinolin-2-one] are 9.7 nM and 38 nM.
For `O=C(c1ccc(-n2cc(-c3cc4cc(F)ccc4[nH]c3=O)nn2)cc1)C1CCNCC1` [A132, 6-fluoro-3-{1-[4-(piperidine-4-carbonyl)-phenyl]-1H-[1,2,3]triazol-4-yl}-1H-quinolin-2-one], the IC50 in experiment [1] was 7.5 nM; in experiment [2], 0.8 nM.
With `O=c1[nH]c2ccc(F)cc2cc1-c1cn(-c2ccc(OCCC3CCNCC3)cc2)nn1` [A133, 6-fluoro-3-{1-[4-(2-piperidin-4-yl-ethoxy)-phenyl]-1H-[1,2,3]triazol-4-yl}-1H-quinolin-2-one], the results for the IC50 in experiment [1] and in experiment [2] were 11 nM and 6.4 nM, respectively.
Taken in the same sequence, the figures for `O=c1[nH]c2cc(F)c(F)cc2cc1-c1cn(-c2ccc(OCCC3CCNCC3)cc2)nn1` [A134, 6,7-difluoro-3-{1-[4-(2-piperidin-4-yl-ethoxy)-phenyl]-1H-[1,2,3]triazol-4-yl}-1H-quinolin-2-one] were 17 nM and 16 nM.
Taken in the same sequence, the figures for `O=c1[nH]c2cc(F)c(F)cc2cc1-c1cn(-c2ccc(OCCCN3CCNCC3)cc2)nn1` [A135, 6,7-difluoro-3-{1-[4-(3-piperazin-1-yl-propoxy)-phenyl]-1H-[1,2,3]triazol-4-yl}-1H-quinolin-2-one] were 180 nM and 310 nM.
Taken in the same sequence, the figures for `O=C(c1ccc(-n2cc(-c3cc4cc(F)c(F)cc4[nH]c3=O)nn2)cc1)C1CCNCC1` [A136, 6,7-difluoro-3-{1-[4-(piperidine-4-carbonyl)-phenyl]-1H-[1,2,3]triazol-4-yl}-1H-quinolin-2-one] were 15 nM and 18 nM.
Consider `Cc1ccc2[nH]c(=O)c(-c3cn(-c4ccc(C(=O)N5CCNCC5)cc4)nn3)cc2c1` [A137, 6-methyl-3-{1-[4-(piperazine-1-carbonyl)-phenyl]-1H-[1,2,3]triazol-4-yl}-1H-quinolin-2-one], for which the IC50 was 40 nM in experiment [1] and 42 nM in experiment [2].
As to `O=C(Cn1ccc2cc(-n3cc(-c4cc5c(F)cc(F)cc5[nH]c4=O)nn3)ccc21)N1CCNCC1` [A138, 5,7-difluoro-3-{1-[1-(2-oxo-2-piperazin-1-yl-ethyl)-1H-indol-5-yl]-1H-[1,2,3]triazol-4-yl}-1H-quinolin-2-one], the IC50 amounted to 11 nM in experiment [1] and 86 nM in experiment [2].
`O=C(Cn1ccc2cc(-n3cc(-c4cc5cc(F)c(F)cc5[nH]c4=O)nn3)ccc21)N1CCNCC1` [A139, 6,7-difluoro-3-{1-[1-(2-oxo-2-piperazin-1-yl-ethyl)-1H-indol-5-yl]-1H-[1,2,3]triazol-4-yl}-1H-quinolin-2-one]: the results for the IC50 in experiment [1] and in experiment [2] were 12 nM and 3800 nM, respectively.
Take `O=C(COc1ccc(-n2cc(-c3cc4cc(F)c(F)cc4[nH]c3=O)nn2)cc1)N1CCNCC1` [A140, 6,7-difluoro-3-{1-[4-(2-oxo-2-piperazin-1-yl-ethoxy)-phenyl]-1H-[1,2,3]triazol-4-yl}-1H-quinolin-2-one]: the values for the IC50 in experiment [1] and in experiment [2] were 14 nM and 28 nM, respectively.
On the same counts, the results for `O=C(COc1ccc(-n2cc(-c3cc4cc(F)ccc4[nH]c3=O)nn2)cc1)N1CCNCC1` [A141, 6-fluoro-3-{1-[4-(2-oxo-2-piperazin-1-yl-ethoxy)-phenyl]-1H-[1,2,3]triazol-4-yl}-1H-quinolin-2-one] are 3.8 nM and 2.8 nM.
Turning to `O=C(c1ccc(-n2cc(-c3cc4ccc(C(F)(F)F)cc4[nH]c3=O)nn2)cc1)N1CCNCC1` [A142, 3-{1-[4-(piperazine-1-carbonyl)-phenyl]-1H-[1,2,3]triazol-4-yl}-7-trifluoromethyl-1H-quinolin-2-one], the IC50 in experiment [1] was found to be 280 nM; in experiment [2] it was 2800 nM.
For the compound `NC1CCN(C(=O)c2ccc(-n3cc(-c4cc5cc(F)c(F)cc5[nH]c4=O)nn3)cc2)CC1` [A143, 3-{1-[4-(4-amino-piperidine-1-carbonyl)-phenyl]-1H-[1,2,3]triazol-4-yl}-6,7-difluoro-1H-quinolin-2-one], the IC50 in experiment [1] stood at 19 nM; in experiment [2], 310 nM.
On the same counts, the results for `NC1CCN(C(=O)c2ccc(-n3cc(-c4cc5cc(F)ccc5[nH]c4=O)nn3)cc2)CC1` [A144, 3-{1-[4-(4-amino-piperidine-1-carbonyl)-phenyl]-1H-[1,2,3]triazol-4-yl}-6-fluoro-1H-quinolin-2-one] are 12 nM and 170 nM.
For `O=C1CNCCN1c1ccc(-n2cc(-c3cc4cc(F)c(F)cc4[nH]c3=O)nn2)cc1` [A145, 6,7-difluoro-3-{1-[4-(2-oxo-piperazin-1-yl)-phenyl]-1H-[1,2,3]triazol-4-yl}-1H-quinolin-2-one], the figures for the IC50 in experiment [1] and in experiment [2] were 22 nM and 180 nM, respectively.
Regarding `CN1CCN(C(=O)c2ccc(-n3cc(-c4cc5c(F)cccc5[nH]c4=O)nn3)cc2)CC1` [A149, 5-fluoro-3-{1-[4-(4-methyl-piperazine-1-carbonyl)-phenyl]-1H-[1,2,3]triazol-4-yl}-1H-quinolin-2-one], the IC50 turned out to be 6 nM in experiment [1] and 12 nM in experiment [2].
Taken in the same sequence, the figures for `CN1CCN(C(=O)c2ccc(-n3cc(-c4cc5cccc(F)c5[nH]c4=O)nn3)cc2)CC1` [A150, 8-fluoro-3-{1-[4-(4-methyl-piperazine-1-carbonyl)-phenyl]-1H-[1,2,3]triazol-4-yl}-1H-quinolin-2-one] were 49 nM and 37 nM.
On to `CN1CCN(C(=O)c2ccc(-n3cc(-c4cc5cc(Cl)ccc5[nH]c4=O)nn3)cc2)CC1` [A151, 6-chloro-3-{1-[4-(4-methyl-piperazine-1-carbonyl)-phenyl]-1H-[1,2,3]triazol-4-yl}-1H-quinolin-2-one], for which the IC50 in experiment [1] stood at 3 nM; in experiment [2] it was 1 nM.
`CN1CCN(C(=O)c2ccc(-n3cc(-c4cc5c(F)cc(F)cc5[nH]c4=O)nn3)cc2)CC1` [A152, 5,7-difluoro-3-{1-[4-(4-methyl-piperazine-1-carbonyl)-phenyl]-1H-[1,2,3]triazol-4-yl}-1H-quinolin-2-one]: the IC50 amounted to 11 nM in experiment [1] and 23 nM in experiment [2].
For `CN1CCN(C(=O)c2cccc(-n3cc(-c4cc5cc(F)ccc5[nH]c4=O)nn3)c2)CC1` [A153, 6-Fluoro-3-{1-[3-(4-methyl-piperazine-1-carbonyl)-phenyl]-1H-[1,2,3]triazol-4-yl}-1H-quinolin-2-one], the IC50 worked out at 24 nM in experiment [1] and 4 nM in experiment [2].
`CN1CCN(C(=O)c2ccc(-n3cc(-c4cc5ccc(Cl)cc5[nH]c4=O)nn3)cc2)CC1` [A154, 7-chloro-3-{1-[4-(4-methyl-piperazine-1-carbonyl)-phenyl]-1H-[1,2,3]triazol-4-yl}-1H-quinolin-2-one]: the half-inhibitory concentration (IC50) in experiment [1] is 11 nM; in experiment [2], 3 nM.
Consider `CN1CCCN(c2ccc(-n3cc(-c4cc5cc(F)cnc5[nH]c4=O)nn3)cc2)CC1` [A155, 6-fluoro-3-{1-[4-(4-methyl-[1,4]diazepan-1-yl)-phenyl]-1H-[1,2,3]triazol-4-yl}-1H-[1,8]naphthyridin-2-one], for which the IC50 in experiment [1] came to 81 nM; in experiment [2], 61 nM.
On the same counts, the results for `CN1CCN(C(=O)c2ccc(-n3cc(-c4cc5c(F)c(F)ccc5[nH]c4=O)nn3)cc2)CC1` [A156, 5,6-difluoro-3-{1-[4-(4-methyl-piperazine-1-carbonyl)-phenyl]-1H-[1,2,3]triazol-4-yl}-1H-quinolin-2-one] are 26 nM and 40 nM.
Taken in the same sequence, the figures for `CN1CCN(C(=O)c2ccc(-n3cc(-c4cc5cc(F)c(F)cc5[nH]c4=O)nn3)cc2)CC1` [A157, 6,7-difluoro-3-{1-[4-(4-methyl-piperazine-1-carbonyl)-phenyl]-1H-[1,2,3]triazol-4-yl}-1H-quinolin-2-one] were 5.9 nM and 0.32 nM.
As for `CN1CCC(C(=O)c2ccc(-n3cc(-c4cc5cc(F)ccc5[nH]c4=O)nn3)cc2)CC1` [A161, 6-fluoro-3-{1-[4-(1-methyl-piperidine-4-carbonyl)-phenyl]-1H-[1,2,3]triazol-4-yl}-1H-quinolin-2-one], the values for the IC50 in experiment [1] and in experiment [2] were 35 nM and 15 nM, respectively.
On to `CN1CCN(CCCOc2ccc(-n3cc(-c4cc5cc(F)c(F)cc5[nH]c4=O)nn3)cc2)CC1` [A162, 6,7-difluoro-3-(1-{4-[3-(4-methyl-piperazin-1-yl)-propoxy]-phenyl}-1H-[1,2,3]triazol-4-yl)-1H-quinolin-2-one], for which the values for the IC50 in experiment [1] and in experiment [2] were 82 nM and 97 nM, respectively.
Taken in the same sequence, the figures for `CN1CCC(CCOc2ccc(-n3cc(-c4cc5cc(F)ccc5[nH]c4=O)nn3)cc2)CC1` [A163, 6-fluoro-3-(1-{4-[2-(1-methyl-piperidin-4-yl)-ethoxy]-phenyl}-1H-[1,2,3]triazol-4-yl)-1H-quinolin-2-one] were 9.9 nM and 45 nM.
